Data taken from publication PMC4838890, “Dynamic and flexible H3K9me3 bridging via HP1β dimerization establishes a plastic state of condensed chromatin” (Nature Communications, 2016).
“Also recorded” adds a separate entry of the source.

What was measured:
[1] = tested on: H3K9me3 oligonucleosomal templates containing tailless H2A, H2B or H4; assay: Chromatin sedimentation (clustering), H3K9me3 oligonucleosomes with tailless histones; assay type: biochemical, Xenopus laevis; details: 150 mM NaCl, n=3
Experimental: Figure 3 hHP1β clusters oligonuclesomal arrays in dependence of H3K9me3. (a) Oligonucleosomes (2.5 nM) were incubated with increasing concentrations of hHP1β WT or I161A at 150 mM NaCl. DNA remaining in the supernatant after centrifugation was incubated with EtBr and measured by fluorescence reading. Data were normalized to amounts in absence of added protein. Averages of three independent experiments are plotted; error bars represent s.d.; n=3. (b) Analysis of the hydrodynamic radius of oligonucleosomes (10 nM; DNA labelled with ATTO 610) in the presence of increasing concentrations of hHP1β WT or I161A by FCS at 150 mM NaCl. For details on experimental setup see Supplementary Fig. 3. Error bars represent s.d.; n=3. (c) Oligonucleosomes were reconstituted after mixing H3K9me0 and H3K9me3 octamers at different ratio. […] (d) Precipitation behaviour of oligonucleosomes (2.5 nM) was analysed at different concentrations of NaCl with hHP1β WT at saturating concentration. […] Precipitated material was analysed by western blotting. […] Complexes were fixed with 0.05% (v/v) glutaraldehyde, spotted on mica surfaces and analysed by scanning force microscopy. […] (h) Quantification of results representatively shown in g according to the classification on the top: A, extended; B, partially condensed; C, fully condensed; D; aggregates; n>50 for each condition. […]

[2] = target: fluorescein-labeled H3K9me3-peptide; assay: Fluorescence polarization (FP), H3K9me3 peptide; assay type: binding; details: 150 mM NaCl, 10 mM triethanolamine pH 7.4, 0.1 mM EDTA, 2 mM DTT, 4°C, read-out: apparent Kd
Experimental: Experiments were performed in 10 mM triethanolamine HCl (pH 7.4), 150 mM NaCl, 0.1 mM EDTA, 2 mM DTT. Titration series of 10 μl volume in 384-well plates were read multiple times on a Plate CHAMELEON II plate reader (HIDEX Oy, Turku, Finland). Multiple readings and independent titration series were averaged after data normalization. […]
hHP1β) using mass spectrometry. For detailed listing of the identified crosslinks see Supplementary […]
(c) Binding of the indicated hHP1β wild type (WT) and mutant proteins to a fluorescein-labeled H3K9me3-peptide was analyzed by FP at 150 mM NaCl. Apparent Kd deduced from the fitted curves are […]
(d) Chromatin coprecipitation of hHP1β WT and mutant proteins with oligonucleosomes. Precipitated material was run on SDS-PAGE and stained with Coomassie Blue. Input, 10 %.
(e) Oligonucleosomes at 2.5 nM were incubated with hHP1β wild type (WT) or mutant proteins at 5 µM and 150 mM NaCl (saturating conditions). DNA remaining in the supernatant after centrifugation was incubated with EtBr and measured by fluorescence reading. Data were n ormalized to DNA levels present in the input. […]
(g) Oligonucleosomes at 6.7 nM were incubated with hHP1β wild type (WT) or mutant proteins at 5 µM and 100 mM NaCl (non-saturating conditions). DNA remaining in the supernatant after centrifugation was incubated with EtBr and measured by fluorescence reading. […]

hHP1β WT: recombinant human heterochromatin protein 1β (GenBank NM_001127228), 185 aa
clustering of oligonucleosomes with tailless histones [1]: clustered H3K9me3 oligonucleosomes containing tailless H2A or H2B as efficiently as H3K9me3-oligonucleosomes containing WT core histones; also recorded: the effect on H3K9me3 oligonucleosomes containing tailless H4 was impaired | Kd [2]: 5 ± 2 µM
